Where two headings read alike, the source gives them in different places.
Experiments:
[1] = tested on: ZR75-1; test: Caspase cascade activation assay (N-(Ac-DEVD)-N'-ethoxycarbonyl-R110 fluorogenic substrate) in ZR75-1 cells; assay type: cell-based, Human; conditions: for EC50 / EC50 (nM) caspase potency: sigmoidal dose-response; for EC50: read-out: EC50 (nM) caspase potency; for Caspase activity Ratio: ratio of net RFU of test compound to control, 0.16 to 10 μM final
Method: (§1) Human breast cancer cell lines T47D and ZR75-1 were grown according to media component mixtures designated by American Type Culture Collection +10% FCS (Invitrogen Corporation, Life Technologies Division), in a 5% CO2 −95% humidity incubator at 37° C. T47D and ZR75-1 cells were maintained at a cell density between 30 and 80% confluency at a cell density of 0.1 to 0.6×10^6 cells/ml. Cells were harvested at 600xg and resuspended at 0.65×10^6 cells/ml into appropriate media +10% FCS. An aliquot of 45 μl of cells was added to a well of a 96-well microtiter plate containing 5 μl of a 10% DMSO in RPMI-1640 media solution containing 1.6 to 100 μM of N-(4-methoxy-2-nitrophenyl)-3-pyridinecarboxamide or other test compound (0.16 to 10 μM final). An aliquot of 45 μl of cells was added to a well of a 96-well microtiter plate containing 5 μl of a 10% DMSO in RPMI-1640 media solution without test compound as the control sample. The samples were mixed by agitation and then incubated at 37 C. for 24 h in a 5% CO2 −95% humidity incubator. After incubation, the samples were removed from the incubator and 50 μl of a solution containing 20 μM of N-(Ac-DEVD)-N′-ethoxycarbonyl-R110 (SEQ ID NO: 1) fluorogenic substrate (Cytovia, Inc.; WO99/18856), 20% sucrose (Sigma), 20 mM DTT (Sigma), 200 mM NaCl (Sigma), 40 mM Na PIPES buffer pH 7.2 (Sigma), and 500 μg/ml lysolecithin (Calbiochem) was added. The samples were mixed by agitation and incubated at room temperature. Using a fluorescent plate reader (Model 1420 Wallac Instruments), an initial reading (T=0) was made approximately 1-2 min after addition of the substrate solution, employing excitation at 485 nm and emission at 530 nm, to determine the background fluorescence of the control sample. After the 3 h incubation, the samples were read for fluorescence as above (T=3 h).
(§2) The Relative Fluorescence Unit values (RFU) were used to calculate the sample readings as follows:
(§3) RFU(T=3h)−Control RFU(T=0)=Net RFU(T=3h).
(§4) The activity of caspase cascade activation was determined by the ratio of the net RFU value for N-(4-methoxy-2-nitrophenyl)-3-pyridinecarboxamide or other test compound to that of control samples. The EC50 (nM) was determined by a sigmoidal dose-response calculation (Prism 2.0, GraphPad Software Inc.).

[2] = tested on: T47D; test: Caspase cascade activation assay (N-(Ac-DEVD)-N'-ethoxycarbonyl-R110 fluorogenic substrate) in T47D cells; assay type: cell-based, Human; conditions: 24 h incubation; for EC50 / EC50 (nM) caspase potency: sigmoidal dose-response; for EC50: read-out: EC50 (nM) caspase potency; for Caspase activity Ratio: ratio of net RFU of test compound to control, 0.16 to 10 μM final
Method: as §1, §2, §3, §4

[3] = Homo sapiens, ZR-75-1, 24 h incubation

CCOc1ccc(NC(=O)c2ccc(F)nc2)c([N+](=O)[O-])c1 [Example 22, 6-Fluoro-N-(4-ethoxy-2-nitrophenyl)-3-pyridinecarboxamide]
EC50 [1, 3]: 295 nM | Caspase activity Ratio ([1]; 24 h incubation): 6.6 | EC50 ([2]; Homo sapiens): 466 nM | Caspase activity Ratio [2]: 7.6

CCOc1ccc(N(C)C(=O)c2ccc(Cl)nc2)c([N+](=O)[O-])c1 [Example 30, 6-Chloro-N-(4-ethoxy-2-nitrophenyl)-N-methyl-3-pyridinecarboxamide]
EC50 (nM) caspase potency ([1]; 24 h incubation): Inactive | Caspase activity Ratio ([1]; 24 h incubation): Inactive | EC50 (nM) caspase potency [2]: Inactive | Caspase activity Ratio [2]: Inactive

O=C(Nc1ccc(C(=O)c2ccccc2)cc1[N+](=O)[O-])c1ccc(Cl)nc1 [Example 24, 6-Chloro-N-(4-benzoyl-2-nitrophenyl)-3-pyridinecarboxamide]
EC50 (nM) caspase potency ([1]; 24 h incubation): Inactive | Caspase activity Ratio ([1]; 24 h incubation): Inactive | EC50 (nM) caspase potency [2]: Inactive | Caspase activity Ratio [2]: Inactive

COc1ccc(NC(=O)c2cnc(Cl)nc2C(F)(F)F)c([N+](=O)[O-])c1 [Example 13, 2-Chloro-4trifluoromethyl-N-(4methoxy-2-nitrophenyl)-5-pyrimidinecarboxamide]
EC50 (nM) caspase potency ([1]; 24 h incubation): Inactive | Caspase activity Ratio ([1]; 24 h incubation): Inactive | EC50 (nM) caspase potency [2]: Inactive | Caspase activity Ratio [2]: Inactive

4-Chloro-N-(4-ethoxy-2-nitrophenyl)-benzoylamide [Example 18]
EC50 ([1]; 24 h incubation): 3840 nM | Caspase activity Ratio ([1]; 24 h incubation): 5.1 | EC50 [2]: 6750 nM | Caspase activity Ratio [2]: 3.0

COc1ccc(NC(=O)c2ccncc2)c([N+](=O)[O-])c1 [Example 14, N-(4-methoxy-2-nitrophenyl)-4-pyridinecarboxamide]
EC50 (nM) caspase potency ([1]; 24 h incubation): Inactive | Caspase activity Ratio ([1]; 24 h incubation): Inactive | EC50 (nM) caspase potency [2]: Inactive | Caspase activity Ratio [2]: Inactive

O=C(Nc1cc(F)c(F)cc1[N+](=O)[O-])c1ccc(Cl)nc1 [Example 19, 6-Chloro-N-(4,5-difluoro-2-nitrophenyl)-3-pyridinecarboxamide]
EC50 [1, 3]: 6880 nM | Caspase activity Ratio ([1]; 24 h incubation): 3.8 | EC50 ([2]; Homo sapiens): 3550 nM | Caspase activity Ratio [2]: 2.7

Cc1ccc(NC(=O)c2ccc(Cl)nc2)c([N+](=O)[O-])c1 [Example 9, 6-Chloro-N-(4-methyl-2-nitrophenyl)-3-pyridinecarboxamide]
EC50 [1, 3]: 488 nM | Caspase activity Ratio ([1]; 24 h incubation): 5.0 | EC50 ([2]; Homo sapiens): 920 nM | Caspase activity Ratio [2]: 5.4

COc1ccc(NC(=O)c2ccc(Cl)nc2)cc1 [Example 11, 6-Chloro-N-(4-methoxyphenyl)-3-pyridinecarboxamide]
EC50 (nM) caspase potency ([1]; 24 h incubation): Inactive | Caspase activity Ratio ([1]; 24 h incubation): Inactive | EC50 (nM) caspase potency [2]: Inactive | Caspase activity Ratio [2]: Inactive

O=C(Nc1ccc([N+](=O)[O-])cc1[N+](=O)[O-])c1ccc(Cl)nc1 [Example 17, 6-Chloro-N-(2,4-dinitrophenyl)-3-pyridinecarboxamide]
EC50 (nM) caspase potency ([1]; 24 h incubation): Inactive | Caspase activity Ratio ([1]; 24 h incubation): Inactive | EC50 (nM) caspase potency [2]: Inactive | Caspase activity Ratio [2]: Inactive

COc1cc([N+](=O)[O-])c(NC(=O)c2ccc(Cl)nc2)cc1Br [Example 4, 6-Chloro-N-(3-bromo-4-methoxy-6-nitrophenyl)-3-pyridinecarboxamide]
EC50 [1, 3]: 4030 nM | Caspase activity Ratio ([1]; 24 h incubation): 3.2 | EC50 (nM) caspase potency [2]: Inactive | Caspase activity Ratio [2]: Inactive

COc1ccc(NC(=O)c2ccc(Cl)nc2Cl)c([N+](=O)[O-])c1 [Example 15, 2,6-Dichloro-N-(4-methoxy-2-nitrophenyl)-3-pyridinecarboxamide]
EC50 (nM) caspase potency ([1]; 24 h incubation): Inactive | Caspase activity Ratio ([1]; 24 h incubation): Inactive | EC50 (nM) caspase potency [2]: Inactive | Caspase activity Ratio [2]: Inactive

O=C(Nc1ccc(OCc2ccccc2)cc1[N+](=O)[O-])c1ccc(Cl)nc1 [Example 25, 6-Chloro-N-(4-benzyloxy-2-nitrophenyl)-3-pyridinecarboxamide]
EC50 [1, 3]: 133 nM | Caspase activity Ratio ([1]; 24 h incubation): 6.6 | EC50 ([2]; Homo sapiens): 345 nM | Caspase activity Ratio [2]: 5.8

O=C(Nc1ccc(F)cc1[N+](=O)[O-])c1ccc(Cl)nc1 [Example 3, 6-Chloro-N-(4-fluoro-2-nitrophenyl)-3-pyridinecarboxamide]
EC50 [1, 3]: 4620 nM | Caspase activity Ratio ([1]; 24 h incubation): 2.1 | EC50 (nM) caspase potency [2]: Inactive | Caspase activity Ratio [2]: Inactive

O=C(Nc1ccc(Cl)cc1[N+](=O)[O-])c1ccc(Cl)nc1 [Example 2, 6-Chloro-N-(4-chloro-2-nitrophenyl)-3-pyridinecarboxamide]
EC50 [1, 3]: 329 nM | Caspase activity Ratio ([1]; 24 h incubation): 5.8 | EC50 ([2]; Homo sapiens): 587 nM | Caspase activity Ratio [2]: 7.8

COc1ccc(NC(=O)c2ccc(Cl)nc2)c([N+](=O)[O-])c1 [Example 7, 6-Chloro-N-(4-methoxy-2-nitrophenyl)-3-pyridinecarboxamide]
EC50 [1, 3]: 230 nM | Caspase activity Ratio ([1]; 24 h incubation): 2.7 | EC50 ([2]; Homo sapiens): 593 nM | Caspase activity Ratio [2]: 8.1

N#Cc1ccc(NC(=O)c2ccc(Cl)nc2)c([N+](=O)[O-])c1 [Example 21, 6-Chloro-N-(4-cyano-2-nitrophenyl)-3-pyridinecarboxamide]
EC50 [1, 3]: 4670 nM | Caspase activity Ratio ([1]; 24 h incubation): 2.3 | EC50 (nM) caspase potency [2]: Inactive | Caspase activity Ratio [2]: Inactive

O=C(Nc1ccc(C(F)(F)F)cc1[N+](=O)[O-])c1ccc(Cl)nc1 [Example 1, 6-Chloro-N-(2-nitro-4-trifluoromethylphenyl)-3-pyridinecarboxamide]
EC50 [1, 3]: 729 nM | Caspase activity Ratio ([1]; 24 h incubation): 3.6 | EC50 ([2]; Homo sapiens): 2970 nM | Caspase activity Ratio [2]: 8.9

Cc1cc(NC(=O)c2ccc(Cl)nc2)c([N+](=O)[O-])cc1C [Example 27, 6-Chloro-N-(4,5-dimethyl-2-nitrophenyl)-3-pyridinecarboxamide]
EC50 (nM) caspase potency ([1]; 24 h incubation): Inactive | Caspase activity Ratio ([1]; 24 h incubation): Inactive | EC50 (nM) caspase potency [2]: Inactive | Caspase activity Ratio [2]: Inactive

COc1ccc(NC(=O)c2ccc(Cl)nc2)c(C)c1 [Example 20, 6-Chloro-N-(4-methoxy-2-methylphenyl)-3-pyridinecarboxamide]
EC50 (nM) caspase potency ([1]; 24 h incubation): Inactive | Caspase activity Ratio ([1]; 24 h incubation): Inactive | EC50 (nM) caspase potency [2]: Inactive | Caspase activity Ratio [2]: Inactive

CCOc1ccc(NC(=O)c2ccc(C)nc2)c([N+](=O)[O-])c1 [Example 26, 6-Methyl-N-(4-ethoxy-2-nitrophenyl)-3-pyridinecarboxamide]
EC50 [1, 3]: 20 nM | Caspase activity Ratio ([1]; 24 h incubation): 3.2 | EC50 ([2]; Homo sapiens): 42 nM | Caspase activity Ratio [2]: 5.5

COc1ccc(NC(=O)c2ccc(Cl)[n+]([O-])c2)c([N+](=O)[O-])c1 [Example 28, 6-Chloro-N-(4-methoxy-2-nitrophenyl)-1-N-oxide-3-pyridinecarboxamide]
EC50 ([1]; 24 h incubation): 4510 nM | Caspase activity Ratio ([1]; 24 h incubation): 5.1 | EC50 [2]: 7330 nM | Caspase activity Ratio [2]: 2.4

COc1ccc(NC(=O)c2cnc(Cl)c(Cl)c2)c([N+](=O)[O-])c1 [Example 16, 5,6-Dichloro-N-(4-methoxy-2-nitrophenyl)-3-pyridinecarboxamide]
EC50 (nM) caspase potency ([1]; 24 h incubation): Inactive | Caspase activity Ratio ([1]; 24 h incubation): Inactive | EC50 (nM) caspase potency [2]: Inactive | Caspase activity Ratio [2]: Inactive

COc1ccc(NC(=O)c2cc(Cl)nc(Cl)c2)c([N+](=O)[O-])c1 [Example 12, 2,6-Dichloro-N-(4-methoxy-2-nitrophenyl)-4-pyridinecarboxamide]
EC50 (nM) caspase potency ([1]; 24 h incubation): Inactive | Caspase activity Ratio ([1]; 24 h incubation): Inactive | EC50 (nM) caspase potency [2]: Inactive | Caspase activity Ratio [2]: Inactive

COc1ccc(NC(=O)c2ccc(Cl)nc2)c(OC)c1 [Example 5, 6-Chloro-N-(2,4-dimethoxyphenyl)-3-pyridinecarboxamide]
EC50 (nM) caspase potency ([1]; 24 h incubation): Inactive | Caspase activity Ratio ([1]; 24 h incubation): Inactive | EC50 (nM) caspase potency [2]: Inactive | Caspase activity Ratio [2]: Inactive

COc1ccc(NC(=O)c2cccnc2Cl)c([N+](=O)[O-])c1 [Example 6, 2-Chloro-N-(4-methoxy-2-nitrophenyl)-3-pyridinecarboxamide]
EC50 (nM) caspase potency ([1]; 24 h incubation): Inactive | Caspase activity Ratio ([1]; 24 h incubation): Inactive | EC50 (nM) caspase potency [2]: Inactive | Caspase activity Ratio [2]: Inactive
